Several values for one entry are separate records, joined by “and”; a condition that tells them apart may be missing. Identical values can stand only once.
Experiments:
MCF-7 cells = test: Anti-proliferative assay (MTS/PMS), MCF-7; type: cell-based; conditions: 72 h
Description: (§1) MCF-7 and SKBr3 cells were maintained in a 1:1 mixture of Advanced DMEM/F12 (Gibco) supplemented with nonessential amino acids, L-glutamine (2 mM), streptomycin ([…]), penicillin (100 units/mL), and 10% FBS. Cells were grown to confluence in a humidified atmosphere (37° C., 5% CO2), seeded (2000/well, 100 μL) in 96-well plates, and allowed to attach overnight. Compound or GDA at varying concentrations in DMSO (1% DMSO final concentration) was added, and cells were returned to the incubator for 72 h. At 72 h, the number of viable cells was determined using an MTS/PMS cell proliferation kit (Promega) per the manufacturer's instructions. Cells incubated in 1% DMSO were used as 100% proliferation, and values were adjusted accordingly. IC50 values were calculated from separate experiments performed in triplicate using GraphPad Prism.

SKBr3 cells = test: Anti-proliferative assay (MTS/PMS), SKBr3; type: cell-based; conditions: 72 h
Description: as §1

[1] = tested on: alkaline phosphatase in Ishikawa cells; test: Stimulation of alkaline phosphatase in Ishikawa cells (estrogenic potency); type: cell-based, human; conditions: for Ishikawa - RSA: relative stimulatory activity in comparison to E2 = 100%
Description: The methodology for determining estrogenic potency, estrogen receptor binding, and stimulation of an estrogen responsive gene in alkaline phosphatase in the Ishikawa cell was performed as described. (Stabile, et al. (2005) Cancer Res. 65:1459-1470; Perez-Soler (2007) Clin. Can. Res. 13(Suppl. 15):[…]; Nicholson, et al. (2000) British J. Cancer 82:501-513; Schiff, et al. (2004) Clin. Can. Res. 10 (supp.1):331s-336s).
(§2) The induction of AlkP in human endometrial adenocarcinoma cells (Ishikawa) grown in 96-well microtiter plates was performed as described. The cells were grown in Phenol red-free medium with estrogen-depleted (charcoal stripped) bovine serum in the presence or absence of varying amounts of the steroids across a dose range of at least 6 orders of magnitude. After 3 days, the cells were washed, frozen, thawed, and then incubated with 5 mM p-nitrophenyl phosphate, a chromogenic substrate for the AlkP enzyme, at pH 9.8. To ensure linear enzymatic analysis, the plates were monitored kinetically for the production of p-nitrophenol at 405 nm.
(§3) Each compound was analyzed in at least 3 separate experiments performed in duplicate. The Ki and RSA (RSA=ratio of 1/EC50 of the steroid analog to that of E2×100) were determined using the curve fitting program Prism. The results are shown below in FIGS. 1A-1C, 2, 3, and 4.

[2] = target: T1, LBD of human ERα (M250-V595) (Homo sapiens, UniProt P03372); test: Competitive binding of [3H]E2 to ERα-LBD (RBA); conditions: RBA against E2
T1 construct: the LBD of human ERα (M250-V595) is expressed; made in house; host or cells: Escherichia coli (lysates)
T1 sequence (P03372 250-595): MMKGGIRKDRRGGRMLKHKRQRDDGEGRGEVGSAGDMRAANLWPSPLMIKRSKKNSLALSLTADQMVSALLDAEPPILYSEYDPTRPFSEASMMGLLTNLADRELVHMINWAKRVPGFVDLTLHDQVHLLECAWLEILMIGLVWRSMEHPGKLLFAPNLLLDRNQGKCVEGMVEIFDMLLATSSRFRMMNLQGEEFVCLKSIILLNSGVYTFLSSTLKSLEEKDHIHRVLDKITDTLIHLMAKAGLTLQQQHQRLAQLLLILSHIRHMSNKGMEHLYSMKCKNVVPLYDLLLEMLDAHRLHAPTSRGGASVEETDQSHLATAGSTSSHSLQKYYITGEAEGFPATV
Description: (§4) A. Competitive Binding to Rat Cytosolic ER, Human LBD-ERα and Human LBD-ERβ
Biological evaluation used competitive binding assays with estradiol on the ERα-LBD. […] After incubation, the media was aspirated, the plates were washed 3 times, and the receptor-bound radioactivity absorbed to the plates was extracted with methanol and counted.
(§5) The ability of the described ERα ligands to bind to the ER was determined through their RBA against E2, in the competitive binding assay described above.

Human LBD-ERβ = target: T2, Human LBD-ERβ (Homo sapiens, UniProt Q92731); test: Competitive binding to ERβ (RBA); conditions: for RBA ERβ: RBA against E2
T2 construct: Human LBD-ERα and Human LBD-ERβ
T2 sequence (Q92731 264-498 limits assumed): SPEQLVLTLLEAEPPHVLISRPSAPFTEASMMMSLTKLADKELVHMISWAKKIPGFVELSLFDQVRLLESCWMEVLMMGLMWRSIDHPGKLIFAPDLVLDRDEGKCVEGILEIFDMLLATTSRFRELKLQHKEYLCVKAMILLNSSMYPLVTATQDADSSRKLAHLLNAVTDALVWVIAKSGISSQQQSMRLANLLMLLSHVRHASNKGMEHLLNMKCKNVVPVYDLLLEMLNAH
Description: as §4
Biological evaluation used competitive binding assays with estradiol on the ERα-LBD. Binding affinities of the estradiol derivatives relative to E, were performed in incubations with the LBD of ERα. in lysates of Escherichia coli in which the LBD of human ERα (M250-V595) is expressed as described in Antonello, et al. (J. Med. Chem. (2006) 49:6642-6645), Morphy, et al. (J. Med. Chem. (2006), 49:4961-4970); Meunier (Accounts Chem. Res. (2007), and Ojima (Accounts Chem. Res. (2007). The assay was perfoiiued overnight in phosphate buffered saline +1 mM EDTA at RT. The competition for binding of [^3H]E2 to the LBD of the E2-derivatives in comparison to E2, relative binding affinity (RBA) was determined over a range of concentrations from 10^−12 to 10^−6M. After incubation, the media was aspirated, the plates were washed 3 times, and the receptor-bound radioactivity absorbed to the plates was extracted with methanol and counted.
as §5

[3] = tested on: alkaline phosphatase in Ishikawa cells; test: Inhibition of E2-stimulated alkaline phosphatase in Ishikawa cells; type: cell-based, human; conditions: Ki determined in the presence of I nm E2
Description: as §2, §3

[4] = tested on: MCF-7 (ER-positive) breast cancer cell line; test: Cellular proliferation of MCF-7 (ER-positive) breast cancer cells, mitomycin series; type: cell-based; conditions: MCF-7 cells, FIG. 2, 4, 5
Source text: Another series of biological assays (Litzenburger, et al., Clin. Can. Res. (2009) 15:226 and Georghis, et al., Can. Chemothera. Pharmacol. (1992) 29:290.) are run to evaluate the effect of the mitomycin moiety on cellular proliferation of MCF-7 (ER-positive) and MDA-231 (ER-negative) breast cancer cell lines.

## Geldanamycin aminopentanamidocarbonylphenyl-methyl difluorocyclooctenyltriazolo-ethoxy Anti-Estrogen [Compound 3-17]
MCF-7 cells
  EC50: 17000 nM

## Geldanamycin-aminomethyl-triazolo-ethoxy Anti-Estrogen [Compound 3-13]
SKBr3 cells
  EC50: 710 ± 160 nM
MCF-7 cells
  EC50: 1200 ± 90 nM

## Estradiol [Compound E2, reference compound]
[1]; Ishikawa cells, read-out: EC50 of E2, alkaline phosphatase induction
  EC50: ~0.2 nM

## C[C@]12C[C@H](c3ccc(OCCOCCOCCN=[N+]=[N-])cc3)[C@@H]3c4ccc(O)cc4CC[C@H]3[C@@H]1CC[C@@H]2O [EH-N7-092, 11β-[4-(ω-azido-triethyleneglycoloxy)]-phenyl-estradiol]
[1]
  Ishikawa - RSA: 0%

## C[C@]12C[C@H](c3ccc(OCCN=[N+]=[N-])cc3)[C@@H]3c4ccc(O)cc4CC[C@H]3[C@@H]1CC[C@@H]2O [Compound 2-13, (8S,9R,11S,13S,14S,17S)-11-(4-(2-azidoethoxy)phenyl)-7,8,9,11,12,13,14,15,16,17-decahydro-13-methyl-6H-cyclopenta[a]phenanthrene-3,17-diol]
[2]
  RBA ERα: 39.3±9.0 and 39.3
[2]; listed as drawing 40
  RBA ERα: 39.3 ± 9.0
Human LBD-ERβ; ERα vs ERβ
  ER-subtype selectivity: does not differentiate between ERα and ERβ
Human LBD-ERβ
  RBA ERβ: 33.7±1.77
Human LBD-ERβ; listed as drawing 40
  RBA ERβ: 33.7 ± 1.77
Human LBD-ERβ; ratio of RBA ERβ to RBA ERα
  β/α: 0.86

## Geldanamycin-aminoheptaethylene glycolyl-triazolo-methylaminoethoxy Anti-Estrogen [Compound 3-15]
MCF-7 cells
  EC50: 102 ± 5 nM

## N-propargyl-N′-methyl-mitomycin C [EH-N9-006]
[1]
  Ishikawa - RSA: 0%
[3]
  Ki: 40 ± 4 nM

## CO[C@@]12[C@H](COC(N)=O)C3=C(C(=O)C(C)=C(N)C3=O)N1C[C@@H]1N[C@@H]12 [mitomycin C]
[4]
  anti-proliferative response: more potent in the MCF-7 vs. the MDA-231 cell lines

From US20120046461A1, “STEROIDAL ANTI-HORMONE HYBRIDS” (Northeastern University, priority 2009, published 2012)
